For 14 compounds, GI50 results are on record in ChEMBL document CHEMBL1133028, “The synthesis and in vitro cytotoxic studies of novel oxa-spermidine derivatives and homologues” (2000).

Common to all, as to assay type: functional
In one test the test system is OVCAR-5. Briefly: Compound was evaluated for the growth inhibition of OVCAR-5 ovarian cell lines. The note with it: Homo sapiens.
The subject of a further test is IGROV-1. Briefly: Compound was evaluated for the growth inhibition of […] ovarian cell lines. Particulars: Homo sapiens.
Test [1] concerns Tumor Cell line. The test can be described thus: Mean values over all human tumor cell lines were determined.
The test system of test [2] is Panel renal (Carcinoma cell lines). The test can be described thus: Compound was evaluated for the growth inhibition of cell cultures derived from human renal cancer tumors.
The test system of the next test is Melanoma tumor cell line. The test can be described thus: Compound was evaluated for the growth inhibition of cell cultures derived from human melanoma tumors.
The subject of a further test is leukaemia cell line. Briefly: Compound was evaluated for the growth inhibition of cell cultures derived from human leukemia tumors.
Test [3] concerns Lung cancer tumor cell line. Briefly: Compound was evaluated for the growth inhibition of cell cultures derived from human non small cell lung cancer tumors.
In test [4] the test system is Panel CNS (Carcinoma cell lines). Briefly: Compound was evaluated for the growth inhibition of cell cultures derived from human Cns cancer tumors.
The species entered for test [5] is Homo sapiens. Briefly: Compound was evaluated for the growth inhibition of cell cultures derived from human prostate cancer tumors.
The test system of the next test is Ovarian cancer cell line. Briefly: (§1) Compound was evaluated for the growth inhibition of cell cultures derived from human ovarian cancer tumors.
Test [6] concerns Panel colon (Carcinoma cell lines). The test can be described thus: Compound was evaluated for the growth inhibition of cell cultures derived from human colon cancer tumors.
The test system of test [7] is Panel breast (Carcinoma cell lines). The test can be described thus: (§2) Compound was evaluated for the growth inhibition of cell cultures derived from human breast cancer tumors.
Test [8] deals with Tumor Cell line. Briefly: Compound was evaluated for the growth inhibition of a panel of human tumor cell lines.
For test [9], the species on record is Homo sapiens. The test is described as §1.
Test [10] is described as follows: as §2.
For test [11], the system named is Tumor Cell line. Briefly: Compound was evaluated for the growth inhibition against panel of human tumor cell lines.

Bounds are passed on as bounds.

With `Cc1c(C)c(S(=O)(=O)N(CCCCCCN2C(=O)c3ccccc3C2=O)OCCCN2C(=O)c3ccccc3C2=O)c(C)c2c1OC(C)(C)CC2`, the results for the GI50 in the test with OVCAR-5 and with IGROV-1 were 52.5 µM and 3.27 µM, respectively.
The corresponding values for `Cc1c(C)c(S(=O)(=O)N(CCCCCN2C(=O)c3ccccc3C2=O)OCCCN2C(=O)c3ccccc3C2=O)c(C)c2c1OC(C)(C)CC2` are 52.5 µM and 3.27 µM.
In the case of `Cc1c(C)c(S(=O)(=O)N(CCCCN2C(=O)c3ccccc3C2=O)OCCCN2C(=O)c3ccccc3C2=O)c(C)c2c1OC(C)(C)CC2`, the GI50 (as a rule, the concentration giving 50% growth inhibition) in the test on OVCAR-5 was determined as 52.5 µM; in the test with IGROV-1, 3.27 µM.
The like results for `Cc1c(C)c(S(=O)(=O)N(CCCN2C(=O)c3ccccc3C2=O)OCCCN2C(=O)c3ccccc3C2=O)c(C)c2c1OC(C)(C)CC2` were, in that order, 52.5 µM and 3.27 µM.
Turning to `Cc1cc(C)c(S(=O)(=O)N(CCCCCN)OCCCN)c(C)c1`, the GI50 in the test on Tumor Cell line [1] came to 15.2 µM; in test [2] it was 16.1 µM; in the test with Melanoma tumor cell line, 18.2 µM; in the test on leukaemia cell line it was 15.3 µM; in test [3], 16.9 µM; in test [4], 16.9 µM. The GI50 came to 15.7 µM in the test filed under Homo sapiens [5], 17.9 µM with Ovarian cancer cell line, 16.2 µM in test [6] and 20.2 µM in test [7].
For the compound `Cc1cc(C)c(S(=O)(=O)N(CCCN)OCCCN)c(C)c1`, in the test on Tumor Cell line [8], the GI50 was greater than 100 µM.
In the case of `Cc1cc(C)c(S(=O)(=O)N(CCCCCCN)OCCCN)c(C)c1`, the GI50 in the test with Tumor Cell line [1] was 18.3 µM; in test [2], 17.5 µM; with Melanoma tumor cell line, 15.7 µM; with leukaemia cell line, 19.5 µM; in test [3], 22.4 µM; in test [4] it was 16.5 µM. Moreover, the GI50 is 15.4 µM in the test listed under Homo sapiens [5], 18 µM in the test with Ovarian cancer cell line, 16.7 µM in test [6] and 23 µM in [7].
Consider `Cc1cc(C)c(S(=O)(=O)N(CCCCN)OCCCN)c(C)c1`, for which the GI50 in the test on Tumor Cell line [1] came to 16.4 µM; in test [2], 18.2 µM; in the test on Melanoma tumor cell line, 18.1 µM; in the test with leukaemia cell line, 11.8 µM; in [3], 18.5 µM; in test [4], 18.1 µM. The GI50 is 14.5 µM in the test filed under Homo sapiens [5], 17.2 µM in the test listed under Homo sapiens [9], 13.3 µM in test [6] and 17.8 µM in [7].
In the case of `Cc1c(C)c(S(=O)(=O)N(CCCCCON)OCCCN)c(C)c2c1OC(C)(C)CC2`, the GI50 in the test with Tumor Cell line [1] came out at 12.5 µM; in test [2], 14.3 µM; with Melanoma tumor cell line, 13.7 µM; in the test with leukaemia cell line, 6.3 µM; in test [3], 13.5 µM; in test [4] it was 14.9 µM. Moreover, the concentration for 50% growth inhibition (GI50) in the test listed under Homo sapiens [5] came to 10.6 µM; in the test listed under Homo sapiens [9] it was 12.4 µM; in test [6], 12.8 µM; in test [10], 13.8 µM.
Take `Cc1c(C)c(S(=O)(=O)N(CCCCCCN)OCCCN)c(C)c2c1OC(C)(C)CC2`: the GI50 in the test on Tumor Cell line [1] was 8.5 µM; in [2] it was 11.3 µM; in the test on Melanoma tumor cell line, 10.7 µM; in the test on leukaemia cell line, 4.1 µM; in test [3], 6.3 µM; in [4], 5.6 µM. In addition, the 50% growth inhibitory concentration (GI50) was 16.3 µM in the test listed under Homo sapiens [5], 4.7 µM with Ovarian cancer cell line, 7.2 µM in test [6] and 10.2 µM in test [7].
In the test on Tumor Cell line [11], `NCCCNOCCCN` gave a GI50 greater than 100 µM.
Consider `Cc1c(C)c(S(=O)(=O)N(CCCCN)OCCCN)c(C)c2c1OC(C)(C)CC2`, for which the GI50 with Tumor Cell line [1] is 19.6 µM; in [2], 20.9 µM; in the test with Melanoma tumor cell line it was 19.1 µM; in the test on leukaemia cell line, 26.8 µM; in [3], 15.3 µM; in [4] it was 18 µM. Also, the GI50 is 14.5 µM in the test listed under Homo sapiens [5], 13.5 µM in the test with Ovarian cancer cell line, 20.3 µM in test [6] and 28.4 µM in test [7].
As for `Cc1c(C)c(S(=O)(=O)N(CCCCCN)OCCCN)c(C)c2c1OC(C)(C)CC2`, the 50% growth inhibitory concentration (GI50) with Tumor Cell line [1] amounted to 11.2 µM; in test [2], 16.5 µM; in the test with Melanoma tumor cell line, 10.9 µM; in the test with leukaemia cell line, 3.9 µM; in test [3], 11.5 µM; in [4], 9.6 µM. Further, the GI50 in the test filed under Homo sapiens [5] turned out to be 16.1 µM; in the test on Ovarian cancer cell line it was 12.7 µM; in [6] it was 9.8 µM; in [7], 10 µM.
With `Cc1c(C)c(S(=O)(=O)N(CCCN)OCCCN)c(C)c2c1OC(C)(C)CC2`, the GI50 is 14 µM in the test on Tumor Cell line [1]; 14.7 µM in test [2]; 14.8 µM in the test with Melanoma tumor cell line; 13 µM in the test with leukaemia cell line; 14.2 µM in test [3]; 12.9 µM in test [4]. Further, the GI50 is 14 µM in the test listed under Homo sapiens [5], 12.6 µM in the test on Ovarian cancer cell line, 13.8 µM in test [6] and 15.8 µM in test [7].
